According to ChEMBL document CHEMBL3885861, “Open TG-GATES”:

Species on record: Rattus norvegicus
Assay: Open TG-GATES - Regimen: Daily Repeat
Assay type: toxicity, organism-based, Sprague-Dawley
Parameters: regimen Daily Repeat, gender Male, age 6 weeks
Settings: in vivo, po, 0 mg/kg, route gavage, dose level Control; for APTT / Bas / Eos / Fbg / Hb / Ht / Lym / MCH / MCHC / MCV / Mono / Neu / PT / Plat / RBC / Ret / WBC: tissue Blood; for KIDNEY_L / KIDNEY_R / KIDNEY_TOTAL: tissue Kidney; for LIVER: tissue Liver; for A/G / ALP / ALT / AST / BUN / CRE / Ca / Cl / DBIL / GLC / IP / K / LDH / Na / PL / RALB / TBIL / TC / TG / TP / gamma-GTP: tissue Plasma

CCN1CCCC1CNC(=O)c1cc(S(N)(=O)=O)ccc1OC (configuration not stated) [SULPIRIDE]
TERMINAL_BW (72 h, time 3 day): 237.8 g
APTT (72 h, time 3 day): 16.8 s
Bas (72 h, time 3 day): 0%
Eos (72 h, time 3 day): 1%
Fbg (72 h, time 3 day): 286.8 mg/dL
Hb (72 h, time 3 day): 13.4 g/dL
Ht (72 h, time 3 day): 41.1%
Lym (72 h, time 3 day): 81.6%
MCH (72 h, time 3 day): 20.7 pg
MCHC (72 h, time 3 day): 32.7%
MCV (72 h, time 3 day): 63.2 fL
Mono (72 h, time 3 day): 2.8%
Neu (72 h, time 3 day): 14%
PT (72 h, time 3 day): 12.9 s
Plat (72 h, time 3 day): 117.1 x10_4/uL
RBC (72 h, time 3 day): 650.4 x10_4/ul
Ret (72 h, time 3 day): 6.9%
WBC (72 h, time 3 day): 82.7 x10_2/uL
KIDNEY_L (72 h, time 3 day): 1.1 g
KIDNEY_R (72 h, time 3 day): 1 g
KIDNEY_TOTAL (72 h, time 3 day): 2.1 g
LIVER (72 h, time 3 day): 11.3 g
A/G (72 h, time 3 day): 0.9
ALP (72 h, time 3 day): 1602.4 IU/L
ALT (72 h, time 3 day): 44.8 IU/L
AST (72 h, time 3 day): 67.2 IU/L
BUN (72 h, time 3 day): 15.8 mg/dL
CRE (72 h, time 3 day): 0.2 mg/dL
Ca (72 h, time 3 day): 11.1 mg/dL
Cl (72 h, time 3 day): 104.4 meq/L
DBIL (72 h, time 3 day): 0.012 mg/dL
GLC (72 h, time 3 day): 188.8 mg/dL
IP (72 h, time 3 day): 7.3 mg/dL
K (72 h, time 3 day): 4.3 meq/L
LDH (72 h, time 3 day): 73.8 IU/L
Na (72 h, time 3 day): 140.2 meq/L
PL (72 h, time 3 day): 153.2 mg/dL
RALB (72 h, time 3 day): 2.7 g/dL
TBIL (72 h, time 3 day): 0.054 mg/dL
TC (72 h, time 3 day): 79.6 mg/dL
TG (72 h, time 3 day): 108.6 mg/dL
TP (72 h, time 3 day): 5.7 g/dL
gamma-GTP (72 h, time 3 day): 1 IU/L
TERMINAL_BW ([…], time 7 day): 264.7 g
TERMINAL_BW ([…], time 14 day): 315.8 g
TERMINAL_BW ([…], time 28 day): 375.6 g
APTT ([…], time 7 day): 16.6 s
Bas ([…], time 7 day): 0.4%
Eos ([…], time 7 day): 1%
Fbg ([…], time 7 day): 286.6 mg/dL
Hb ([…], time 7 day): 13.9 g/dL
Ht ([…], time 7 day): 42%
Lym ([…], time 7 day): 82%
MCH ([…], time 7 day): 20.7 pg
MCHC ([…], time 7 day): 33.2%
MCV ([…], time 7 day): 62.5 fL
Mono ([…], time 7 day): 2.4%
Neu ([…], time 7 day): 14%
PT ([…], time 7 day): 12.8 s
Plat ([…], time 7 day): 131 x10_4/uL
RBC ([…], time 7 day): 672.6 x10_4/ul
Ret ([…], time 7 day): 5.3%
WBC ([…], time 7 day): 110.2 x10_2/uL
APTT ([…], time 14 day): 17.2 s
Bas ([…], time 14 day): 0.4%
Eos ([…], time 14 day): 0.8%
Fbg ([…], time 14 day): 289 mg/dL
Hb ([…], time 14 day): 14.6 g/dL
Ht ([…], time 14 day): 43.8%
Lym ([…], time 14 day): 77.4%
MCH ([…], time 14 day): 20 pg
MCHC ([…], time 14 day): 33.3%
MCV ([…], time 14 day): 60 fL
Mono ([…], time 14 day): 2.4%
Neu ([…], time 14 day): 18.6%
PT ([…], time 14 day): 13 s
Plat ([…], time 14 day): 112.7 x10_4/uL
RBC ([…], time 14 day): 731.4 x10_4/ul
Ret ([…], time 14 day): 3.9%
WBC ([…], time 14 day): 115 x10_2/uL
APTT ([…], time 28 day): 19.6 s
Bas ([…], time 28 day): 0%
Eos ([…], time 28 day): 1.2%
Fbg ([…], time 28 day): 286.6 mg/dL
Hb ([…], time 28 day): 15.8 g/dL
Ht ([…], time 28 day): 46%
Lym ([…], time 28 day): 77.4%
MCH ([…], time 28 day): 19.1 pg
MCHC ([…], time 28 day): 34.3%
MCV ([…], time 28 day): 55.6 fL
Mono ([…], time 28 day): 1.8%
Neu ([…], time 28 day): 19%
PT ([…], time 28 day): 12.9 s
Plat ([…], time 28 day): 119.5 x10_4/uL
RBC ([…], time 28 day): 827.2 x10_4/ul
Ret ([…], time 28 day): 2.4%
WBC ([…], time 28 day): 106.9 x10_2/uL
KIDNEY_L ([…], time 7 day): 1.1 g
KIDNEY_R ([…], time 7 day): 1.1 g
KIDNEY_TOTAL ([…], time 7 day): 2.2 g
KIDNEY_L ([…], time 14 day): 1.2 g
KIDNEY_R ([…], time 14 day): 1.2 g
KIDNEY_TOTAL ([…], time 14 day): 2.4 g
KIDNEY_L ([…], time 28 day): 1.2 g
KIDNEY_R ([…], time 28 day): 1.2 g
KIDNEY_TOTAL ([…], time 28 day): 2.5 g
LIVER ([…], time 7 day): 12.3 g
LIVER ([…], time 14 day): 13.1 g
LIVER ([…], time 28 day): 14.3 g
A/G ([…], time 7 day): 0.9
ALP ([…], time 7 day): 1380.6 IU/L
ALT ([…], time 7 day): 44.2 IU/L
AST ([…], time 7 day): 64.8 IU/L
BUN ([…], time 7 day): 16 mg/dL
CRE ([…], time 7 day): 0.2 mg/dL
Ca ([…], time 7 day): 10.8 mg/dL
Cl ([…], time 7 day): 104.4 meq/L
DBIL ([…], time 7 day): 0.016 mg/dL
GLC ([…], time 7 day): 181.6 mg/dL
IP ([…], time 7 day): 7.7 mg/dL
K ([…], time 7 day): 4.5 meq/L
LDH ([…], time 7 day): 64.4 IU/L
Na ([…], time 7 day): 141.2 meq/L
PL ([…], time 7 day): 152.8 mg/dL
RALB ([…], time 7 day): 2.6 g/dL
TBIL ([…], time 7 day): 0.052 mg/dL
TC ([…], time 7 day): 76.8 mg/dL
TG ([…], time 7 day): 118 mg/dL
TP ([…], time 7 day): 5.5 g/dL
gamma-GTP ([…], time 7 day): 1 IU/L
A/G ([…], time 14 day): 0.8
ALP ([…], time 14 day): 1582.6 IU/L
ALT ([…], time 14 day): 38.8 IU/L
AST ([…], time 14 day): 68.8 IU/L
BUN ([…], time 14 day): 17 mg/dL
CRE ([…], time 14 day): 0.2 mg/dL
Ca ([…], time 14 day): 11 mg/dL
Cl ([…], time 14 day): 103.2 meq/L
DBIL ([…], time 14 day): 0.012 mg/dL
GLC ([…], time 14 day): 193.8 mg/dL
IP ([…], time 14 day): 7.4 mg/dL
K ([…], time 14 day): 3.7 meq/L
LDH ([…], time 14 day): 67 IU/L
Na ([…], time 14 day): 141.2 meq/L
PL ([…], time 14 day): 146.2 mg/dL
RALB ([…], time 14 day): 2.6 g/dL
TBIL ([…], time 14 day): 0.056 mg/dL
TC ([…], time 14 day): 68.2 mg/dL
TG ([…], time 14 day): 133.4 mg/dL
TP ([…], time 14 day): 5.8 g/dL
gamma-GTP ([…], time 14 day): 1 IU/L
A/G ([…], time 28 day): 0.8
ALP ([…], time 28 day): 975.6 IU/L
ALT ([…], time 28 day): 38.2 IU/L
AST ([…], time 28 day): 63.8 IU/L
BUN ([…], time 28 day): 17.2 mg/dL
CRE ([…], time 28 day): 0.3 mg/dL
Ca ([…], time 28 day): 10.5 mg/dL
Cl ([…], time 28 day): 104.8 meq/L
DBIL ([…], time 28 day): 0.012 mg/dL
GLC ([…], time 28 day): 169.2 mg/dL
IP ([…], time 28 day): 6.8 mg/dL
K ([…], time 28 day): 3.7 meq/L
LDH ([…], time 28 day): 61.8 IU/L
Na ([…], time 28 day): 143.6 meq/L
PL ([…], time 28 day): 147 mg/dL
RALB ([…], time 28 day): 2.8 g/dL
TBIL ([…], time 28 day): 0.062 mg/dL
TC ([…], time 28 day): 66.4 mg/dL
TG ([…], time 28 day): 167 mg/dL
TP ([…], time 28 day): 6.1 g/dL
gamma-GTP ([…], time 28 day): 1 IU/L
